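Tested at 5 concentrations; 48 h exposure; 96-well plates; endpoints linearly interpolated, else capped at highest concentration. GI50 is the concentration that inhibits growth by half.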 Calls of active or inactive are those of the source. Rule as the data show it: active = GI50 up to about 1.1 µM and inactive = higher.
What was measured:
Test in all cases: NCI-60 cell line screen, 48 h
[1] = system: ACHN
[2] = system: HCT-116
[3] = system: HCT-15
[4] = system: HOP-92
[5] = system: IGROV-1
[6] = system: K562
[7] = system: KM12
[8] = system: MOLT-4
[9] = system: NCI-H23
[10] = system: OVCAR-8
[11] = system: RPMI-8226
[12] = system: SF-268
[13] = system: SF-295
[14] = system: SF-539
[15] = system: SK-OV-3
[16] = system: SNB-19

| Compound | GI50 [1] | GI50 [2] | GI50 [3] [µM] | GI50 [4] | GI50 [5] | GI50 [6] | GI50 [7] | GI50 [8] | GI50 [9] | GI50 [10] | GI50 [11] | GI50 [12] | GI50 [13] | GI50 [14] | GI50 [15] | GI50 [16] |
| --- | --- | --- | --- | --- | --- | --- | --- | --- | --- | --- | --- | --- | --- | --- | --- | --- |
| COC(=O)C(=O)C(C(=O)C=C(C)C)C(=O)C(=O)Nc1cc(C(F)(F)F)ccc1Cl (stereo not drawn) | > 100 µM (inactive) | > 100 µM (inactive) | > 100 | > 100 µM (inactive) | > 100 µM (inactive) | 42.9 µM (inactive) | > 100 µM (inactive) | > 100 µM (inactive) | > 100 µM (inactive) | > 100 µM (inactive) | 24.4 µM (inactive) | > 100 µM (inactive) | > 100 µM (inactive) | > 100 µM (inactive) | > 100 µM (inactive) | > 100 µM (inactive) |
| COc1c(C)cc(O)cc1C=O | > 100 µM (inactive) |  | > 100 | > 100 µM (inactive) | > 100 µM (inactive) | > 100 µM (inactive) | 93.3 µM (inactive) | > 100 µM (inactive) |  | > 100 µM (inactive) | > 100 µM (inactive) | > 100 µM (inactive) | > 100 µM (inactive) | > 100 µM (inactive) | > 100 µM (inactive) | > 100 µM (inactive) |
| O=C(c1ccccc1)N1CCN2CCN=C(c3ccccc3)C21c1ccccc1 (stereo not drawn) | 63.1 µM (inactive) | 48.2 µM (inactive) |  | 17.1 µM (inactive) | > 100 µM (inactive) | 29.1 µM (inactive) | > 100 µM (inactive) | 20.2 µM (inactive) | 80.2 µM (inactive) | > 100 µM (inactive) | 25.5 µM (inactive) |  | 52.1 µM (inactive) | 71.3 µM (inactive) | > 100 µM (inactive) | 38 µM (inactive) |
| Cc1cc(N(CCC#N)CCC#N)ccc1/N=N/c1ccc(Br)cc1 | 9.12 µM (inactive) | 36.8 µM (inactive) | 5.56 |  | 10.9 µM (inactive) | 23.8 µM (inactive) | > 23.8 µM (inactive) | 19.3 µM (inactive) | 17.5 µM (inactive) | > 37.6 µM (inactive) | > 45.9 µM (inactive) | 22.3 µM (inactive) | 21.4 µM (inactive) | 17.8 µM (inactive) | 2.64 µM (inactive) | 16.1 µM (inactive) |
| C=CC1C(OC2OC(CO)C(O)C(O)C2O)OC=C(C(=O)OC)C1CC=O (stereo not drawn) | > 100 µM (inactive) |  | > 100 |  | > 100 µM (inactive) | > 100 µM (inactive) | > 100 µM (inactive) | > 100 µM (inactive) | > 100 µM (inactive) |  | > 100 µM (inactive) | > 100 µM (inactive) | > 100 µM (inactive) | > 100 µM (inactive) | > 100 µM (inactive) | > 100 µM (inactive) |
| COC1=C2C[C@H](O)C(C)C[C@@]2(OC)OC1=O (stereo partly drawn) |  | > 100 µM (inactive) | > 100 | > 100 µM (inactive) | > 100 µM (inactive) | > 100 µM (inactive) | > 100 µM (inactive) | > 100 µM (inactive) | > 100 µM (inactive) |  | > 100 µM (inactive) | > 100 µM (inactive) | > 100 µM (inactive) | > 100 µM (inactive) | > 100 µM (inactive) | > 100 µM (inactive) |
| O=C1c2c(O)cccc2C(C(=O)CCCCCC(=O)C2c3cccc(O)c3C(=O)c3c(O)cccc32)c2cccc(O)c21 | 2.72 µM (inactive) | 0.957 µM (active) | 1 | 7.98 µM (inactive) | 1.14 µM (inactive) | 0.966 µM (active) | 1.07 µM (active) | 9.53 µM (inactive) | 0.692 µM (active) | 1.53 µM (inactive) | 0.741 µM (active) | 1.04 µM (active) | 1.14 µM (inactive) | 0.537 µM (active) | 0.879 µM (active) | 0.973 µM (active) |
| CC(=O)NC1=C(NCCN(C)C)C(=O)c2ccccc2C1=O | 16.9 µM (inactive) | 8.34 µM (inactive) | 9.51 |  | 14.7 µM (inactive) | 12.4 µM (inactive) | 15.8 µM (inactive) | 21.9 µM (inactive) | 11.5 µM (inactive) | 11.3 µM (inactive) |  | 21.5 µM (inactive) | 15.2 µM (inactive) | 11.7 µM (inactive) | > 50 µM (inactive) | 17.6 µM (inactive) |
| CN(C)c1ccc(/C=C2\CCc3ccccc3C2=O)cc1Br | > 100 µM (inactive) | 37.3 µM (inactive) | 71.1 | 62.7 µM (inactive) |  | 33.7 µM (inactive) | 38.5 µM (inactive) | 32.6 µM (inactive) | 68.7 µM (inactive) | 41.1 µM (inactive) | 24.8 µM (inactive) | 65 µM (inactive) | > 100 µM (inactive) | > 100 µM (inactive) | > 100 µM (inactive) | > 100 µM (inactive) |
| COc1cc([C@H]2c3cc4c(cc3[C@H](NCc3ccc(F)cc3)C3COC(=O)[C@H]32)OCO4)cc(OC)c1O (stereo partly drawn) | 1.13 µM (inactive) | 7.59 µM (inactive) | 2.29 | 2.57 µM (inactive) | 1.44 µM (inactive) | 4.36 µM (inactive) | 3.33 µM (inactive) | 0.344 µM (active) | 2.22 µM (inactive) | 4.3 µM (inactive) | 2.31 µM (inactive) | 6.18 µM (inactive) | 2.25 µM (inactive) | 1.79 µM (inactive) | 2.87 µM (inactive) | 2.44 µM (inactive) |
| COc1ccc(C2S/C(=C\c3cccc(OC)c3)C(=O)N2NC(=O)Cc2ccccc2)cc1 (stereo not drawn) | > 100 µM (inactive) | > 100 µM (inactive) | > 100 | > 100 µM (inactive) | > 100 µM (inactive) | > 100 µM (inactive) | > 100 µM (inactive) | > 100 µM (inactive) | > 100 µM (inactive) | > 100 µM (inactive) | > 100 µM (inactive) | > 100 µM (inactive) | > 100 µM (inactive) | > 100 µM (inactive) | > 100 µM (inactive) |  |
| O=[N+]([O-])c1cccc(C2=NOC(C3CCCCC3)C2)c1 (stereo not drawn) | > 100 µM (inactive) | > 100 µM (inactive) | > 100 | > 100 µM (inactive) | > 100 µM (inactive) | > 100 µM (inactive) | > 100 µM (inactive) | > 100 µM (inactive) | > 100 µM (inactive) | > 100 µM (inactive) |  | > 100 µM (inactive) | 94.6 µM (inactive) | > 100 µM (inactive) | > 100 µM (inactive) |  |
| CC1=CCC(O)C=CC(C)C(O)C(C)C=C(C)C(=O)c2c(O)c(C)cc3c2C(=O)C(N)=C(NC(=O)/C=C\C=C/C=CC(C)C(O)CC1=O)C3=O (stereo not drawn) | > 100 µM (inactive) | 21.6 µM (inactive) | > 100 | > 100 µM (inactive) | > 100 µM (inactive) | > 100 µM (inactive) | > 100 µM (inactive) | 63.7 µM (inactive) | > 100 µM (inactive) | > 100 µM (inactive) | > 100 µM (inactive) | > 100 µM (inactive) | > 100 µM (inactive) | > 100 µM (inactive) | > 100 µM (inactive) | > 100 µM (inactive) |
| Cc1cnc2c(C)ccc([N+](=O)[O-])c2c1NCCCN(C)C | > 100 µM (inactive) | > 100 µM (inactive) | > 100 |  | > 100 µM (inactive) | > 100 µM (inactive) | > 100 µM (inactive) | > 100 µM (inactive) | 31.5 µM (inactive) | > 100 µM (inactive) | > 100 µM (inactive) | > 100 µM (inactive) | > 100 µM (inactive) | > 100 µM (inactive) | 75.3 µM (inactive) | > 100 µM (inactive) |
| O=C1C=C[C@@]23CC1C(O)C[C@H]2C=Cc1ccccc13 (stereo partly drawn) | > 100 µM (inactive) | > 100 µM (inactive) | 82.2 | > 100 µM (inactive) | > 100 µM (inactive) | 50.2 µM (inactive) | > 100 µM (inactive) | > 100 µM (inactive) |  | > 100 µM (inactive) | > 100 µM (inactive) | > 100 µM (inactive) | > 100 µM (inactive) | > 100 µM (inactive) | > 100 µM (inactive) | > 100 µM (inactive) |
| CC(=O)c1ccc(NC(=O)C(=O)C(C(=O)c2ccc(Cl)c(Cl)c2)C2OC(=O)c3ccccc32)cc1 (stereo not drawn) | 20.5 µM (inactive) | 13 µM (inactive) | 16.8 | 24.5 µM (inactive) | 29.7 µM (inactive) | 23.3 µM (inactive) | 20.1 µM (inactive) | > 100 µM (inactive) | 13.6 µM (inactive) | 12.5 µM (inactive) |  | 16.3 µM (inactive) |  |  | 59.8 µM (inactive) | 25.5 µM (inactive) |
| COc1ccc(-c2cnoc2-c2ccc(OC)c(OC)c2)cc1OC | 4.68 µM (inactive) | 1.26 µM (inactive) | 0.4 | 2.67 µM (inactive) | 1.29 µM (inactive) | 0.445 µM (active) | 0.746 µM (active) | 0.893 µM (active) | 1.24 µM (inactive) | 3.1 µM (inactive) | 1.54 µM (inactive) | 2.32 µM (inactive) | 0.883 µM (active) | 1.2 µM (inactive) | 1.47 µM (inactive) | 4.15 µM (inactive) |
| Cc1nc2c(o1)/C(=N\c1ccccc1)c1ccccc1C2=O | 7.16 µM (inactive) | 6.98 µM (inactive) | 8.11 | 12.3 µM (inactive) | 17.9 µM (inactive) | 5.7 µM (inactive) | 15.1 µM (inactive) | 18 µM (inactive) | 1.9 µM (inactive) | 3.67 µM (inactive) | 5.66 µM (inactive) | 7.83 µM (inactive) | 16.5 µM (inactive) | 5.16 µM (inactive) | 14.8 µM (inactive) | 11.5 µM (inactive) |
| CC(=O)c1cccc(NC(=O)C(=O)Nn2c(N)nnc2N)c1 | > 100 µM (inactive) | > 100 µM (inactive) | > 100 | > 100 µM (inactive) | > 100 µM (inactive) | > 100 µM (inactive) | > 100 µM (inactive) | > 100 µM (inactive) | > 100 µM (inactive) | > 100 µM (inactive) | > 100 µM (inactive) | > 100 µM (inactive) | > 100 µM (inactive) | > 100 µM (inactive) | > 100 µM (inactive) | > 100 µM (inactive) |
